Laboratory results from PubChem BioAssay (NCI).
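Method: 48-hour compound exposure of cells in 96-well plates, five concentrations, linear interpolation of endpoints. At the GI50, growth is halved. At the TGI there is no net growth.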

How the values were obtained:
Test in all cases: inhibition of tumour cell growth, NCI panel, 48 h
SK-MEL-2 melanoma = system: SK-MEL-2 melanoma
M14 melanoma = system: M14 melanoma
COLO 205 colon = system: COLO 205 colon
SK-MEL-28 melanoma = system: SK-MEL-28 melanoma
NCI/ADR-RES ovarian = system: NCI/ADR-RES ovarian
HCT-15 colon = system: HCT-15 colon
OVCAR-5 ovarian = system: OVCAR-5 ovarian
IGROV1 ovarian = system: IGROV1 ovarian
SF-268 CNS = system: SF-268 CNS
HT29 colon = system: HT29 colon

| SMILES | TGI (SK-MEL-2 melanoma) [µM] | TGI (M14 melanoma) [µM] | TGI (COLO 205 colon) [µM] | TGI (SK-MEL-28 melanoma) [µM] | TGI (NCI/ADR-RES ovarian) [µM] | TGI (HCT-15 colon) [µM] | TGI (OVCAR-5 ovarian) [µM] | TGI (IGROV1 ovarian) [µM] | TGI (SF-268 CNS) [µM] | TGI (HT29 colon) [µM] | GI50 (SK-MEL-2 melanoma) [µM] | GI50 (M14 melanoma) [µM] | GI50 (COLO 205 colon) [µM] | GI50 (SK-MEL-28 melanoma) [µM] | GI50 (NCI/ADR-RES ovarian) [µM] | GI50 (HCT-15 colon) [µM] | GI50 (OVCAR-5 ovarian) [µM] | GI50 (IGROV1 ovarian) [µM] | GI50 (SF-268 CNS) [µM] | GI50 (HT29 colon) [µM] |
| --- | --- | --- | --- | --- | --- | --- | --- | --- | --- | --- | --- | --- | --- | --- | --- | --- | --- | --- | --- | --- |
| Cc1ccc(C(=O)CCC2C(=O)CC(C)(C)CC2=O)cc1 | > 100 | > 100 | > 100 | > 100 | > 100 | > 100 | > 100 | > 100 | > 100 | > 100 | – | – | – | – | – | – | – | – | – | – |
| N#C/C(=C/C=C/c1ccccc1)S(=O)c1ccccc1 (centres undefined) | 5.62 | 2.7 | 2.07 | 1.96 | 13.7 | 0.638 | 1.07 | 3 | 1.94 | 2.17 | 2.09 | 0.655 | 0.482 | 0.565 | 0.369 | 0.211 | 0.3 | 0.467 | 0.392 | 0.366 |
| Cc1ccc2c(N/N=C\c3ccco3)cc(C)nc2n1 | 8.77 | 4.04 | 3.75 | 5.35 | 26.1 | 12 | 26.3 | 14.8 | 20.5 | 8.95 | 3.05 | 2.05 | 1.88 | 2.11 | 6.25 | 2.89 | 11.8 | 3.41 | 6.15 | 2.7 |
| CCC1CCCCN1C(=S)N/N=C(\C)c1ccccn1 (centres undefined) | 1.65 | 1.96 | 0.379 | 4.65 | 6.26 | 3.3 | 4.88 | 2.44 | 5.62 | 4.69 | 0.0733 | 0.0358 | 0.0227 | 0.561 | 0.0472 | 0.0269 | 0.416 | < 0.0304 | 0.0766 | < 0.0253 |
| CNC(=O)c1cncc(/C=C/c2c(C)cccc2C)c1 | > 25 | > 25 | > 25 | > 25 | > 25 | > 25 | > 25 | > 25 | > 25 | > 25 | > 25 | > 25 | > 22.6 | > 25 | > 25 | > 25 | > 25 | 12.9 | > 25 | 16.2 |
| NCCCn1c2c(c3cc4c(cc3c1=O)OCO4)C(=O)c1ccccc1-2 | > 70.3 | 1.1 | > 100 | – | 2.11 | 1.94 | – | – | 16.5 | > 100 | 2.91 | 0.43 | 3.61 | – | 0.7 | 0.554 | – | – | 3.75 | 0.0575 |
| O=C1c2cccc3cc([N+](=O)[O-])cc(c23)C(=O)N1CCN1CCCC1 | 4.45 | 2.08 | 2.92 | 2.9 | – | – | > 19.7 | 5.16 | 4.27 | 7.6 | 1.88 | 0.451 | 0.648 | 1.3 | 0.871 | 0.334 | 1.78 | 0.276 | 0.601 | 0.593 |
| C/C=C1\C(=O)O[C@@H]2C1C[C@@H]1O[C@H]2[C@H](C)CCC/C(C)=C/CC[C@@]1(C)O (some centres undefined) | 13.2 | – | 41.8 | 21.9 | 13.4 | 21.8 | 26.8 | 3.32 | 23 | > 100 | 3.66 | – | 8.16 | 0.38 | 3.89 | 5.51 | 13.5 | 1.29 | 8.45 | 25.4 |
| Cc1cccc2c1NC(=O)[C@@]21[C@H](C(=O)c2ccccc2)[C@]2(C(=O)Nc3ccccc32)[C@H]2CCCN21 | > 100 | > 100 | > 100 | > 100 | 71.5 | > 100 | > 100 | – | > 100 | > 100 | 50.5 | 43.3 | 46.2 | 34.3 | 20.4 | 25.1 | > 100 | – | 30.8 | 37.3 |
| COc1cc([C@@H]2c3cc4c(cc3[C@H](OC(C)=O)[C@H]3COC(=O)[C@H]23)OCO4)cc(OC)c1OC | > 100 | – | 0.0785 | > 100 | > 100 | > 100 | > 100 | > 100 | > 100 | 17.9 | 27.6 | – | 0.0288 | 13.1 | 0.0271 | 0.0316 | 0.0533 | 0.0571 | 0.0484 | 0.0335 |
| COc1ccc(-c2csc(NC(=O)N3CCN(c4cc5c(cc4F)c(=O)c(C(=O)O)cn5C4CC4)CC3)n2)cc1 | 7.1 | > 100 | – | – | > 100 | > 100 | – | > 100 | > 100 | – | 2.42 | 2.31 | – | – | 5.87 | 2.86 | – | 2.36 | 1.23 | – |
| COc1cc2c(=O)n(CCCn3ccnc3)c3c4cc5c(cc4ccc3c2cc1OC)OCO5 | > 83.8 | > 100 | > 100 | > 100 | > 100 | > 100 | – | > 86.6 | 14.9 | > 100 | 8.06 | 0.698 | 0.291 | 2 | 1.08 | 1.17 | – | 1.16 | 0.448 | 0.492 |
| CCn1cc(C(=O)N/N=C/c2cccc(F)c2)c(=O)c2cc(F)c(N3CCNC(C)C3)c(F)c21 (centres undefined) | 3.86 | 3.37 | 3.25 | – | 3.41 | 2.84 | 3.1 | 3.16 | 3.52 | 2.98 | 1.97 | 1.82 | 1.71 | – | 1.81 | 1.46 | 1.7 | 1.58 | 1.8 | 1.55 |
